Measurements: US10017527B2, “KLK4 inhibitors” (Universiteit Antwerpen, priority 2014, dated 2018)
pIC50: −log10 of the molar value. Like-named read-outs stand apart in the source and are kept apart here.

Legend:
Format in all cases: biochemical
[1] = molecular target: T1, KLK8 (human) (Homo sapiens, UniProt O60259); assay: KLK8 inhibition, fluorogenic substrate Boc-Val-Pro-Arg-AMC
T1 construct: purchased Viktor Magdolen, TUMunich (TUM), supplied by an academic laboratory
T1 sequence (O60259 33-260): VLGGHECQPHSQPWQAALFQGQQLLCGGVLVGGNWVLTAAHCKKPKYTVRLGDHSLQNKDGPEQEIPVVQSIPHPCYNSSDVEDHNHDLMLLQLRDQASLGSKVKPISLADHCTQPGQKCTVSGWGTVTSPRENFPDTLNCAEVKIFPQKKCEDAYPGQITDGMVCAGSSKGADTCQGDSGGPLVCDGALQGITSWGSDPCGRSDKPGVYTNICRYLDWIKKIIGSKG
Text: (§1) The IC50 values For KLK1, KLK2 and KLK8 were obtained in a similar way. For plasmin, tPA, thrombin, Fxa, HNE, Plasma kallikrein Chromogenic substrates were used (absorption: 405 nm). (KLK2, KLK4, KLK8 were supplied by Viktor Magdolen TUMunich (TUM)).

[2] = molecular target: AcHE (Homo sapiens, UniProt P22303); assay: AcHE inhibition
[3] = molecular target: T2, tPA (recombinant) (Homo sapiens, UniProt P00750); assay: tPA inhibition, chromogenic substrate Biophen CS-05(88)
T2 construct: purchased Nodia
Text: as §1

[4] = molecular target: T3, Neurtophil Elastase(human) (Homo sapiens, UniProt P08246); assay: Neutrophil elastase inhibition, chromogenic substrate MeOSuc-Ala-Ala-Pro-Val-pNA
T3 construct: purchased Enzo-life sciences
T3 sequence (P08246 30-267): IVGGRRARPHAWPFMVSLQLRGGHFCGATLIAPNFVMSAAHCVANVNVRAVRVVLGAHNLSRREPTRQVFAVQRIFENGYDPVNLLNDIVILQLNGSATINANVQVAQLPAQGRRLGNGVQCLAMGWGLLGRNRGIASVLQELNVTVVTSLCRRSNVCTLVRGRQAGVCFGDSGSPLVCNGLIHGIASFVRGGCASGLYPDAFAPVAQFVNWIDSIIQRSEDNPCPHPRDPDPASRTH
Text: as §1

[5] = molecular target: T4, uPA (recombinant) (Homo sapiens, UniProt P00749); assay: uPA inhibition, chromogenic substrate Biophen CS-61(44)
T4 construct: purchased Nodia

[6] = molecular target: T5, Plasmine (human plasma) (Homo sapiens, UniProt P00747); assay: Plasmin inhibition, chromogenic substrate Biophen CS-21(66)
T5 construct: purchased Sigma-Aldrich; host or cells: human plasma
Text: as §1

[7] = molecular target: T6, KLK1 (human) (Homo sapiens, UniProt P06870); assay: KLK1 inhibition, fluorogenic substrate H-Pro-Phe-Arg-AMC
T6 construct: purchased Prospec
Text: as §1

[8] = molecular target: T7, FXa (Homo sapiens, UniProt P00742); assay: FXa inhibition, chromogenic substrate Biophen CS-11(32)
T7 construct: purchased Nodia
Text: as §1

[9] = molecular target: T8, KLK4 (Homo sapiens, UniProt Q9Y5K2); assay: KLK4 enzymatic inhibition, fluorogenic substrate Boc-Val-Pro-Arg-AMC
T8 construct: purchased Viktor Magdolen (TUM), supplied by an academic laboratory
Procedure: The substrate was obtained form Bachem and the enzyme was provided by Viktor Magdolen (TUM). The reaction was monitored with an excitation wavelength of 355 nm and emission wavelength of 460 nm. The initial rate was determined between 2500000 and 4500000 mRFU/min. The reaction mixture contained 25 μM substrate and approximately 1 mU of enzyme in 145 μL of buffer in a final volume of […]. A 50 mM Tris buffer, pH 8.3, was used. From each inhibitor concentration, 5 μL was added, obtaining a final concentration from 0 to 250 μM in a total volume of 0.2 mL. Activity measurements were routinely performed in duplicate. […] IC50 values were obtained by fitting the data with the four-parameter logistics equation using Grafit 7.
[formula] where s=slope factor, v=rate, I0=inhibitor concentration, and range=the fitted uninhibited value minus the background. The equation assumes they falls with increasing x.
Inhibitor stock solutions were prepared in DMSO and stored at −20° C. Because the compounds described in this paper completely inactivate KLK4 following pseudo first-order kinetics, the IC50 value is inversely correlated with the second-order rate constant of inactivation. For a simple pseudo first-order inactivation process, the activity after incubation with inhibitor (vi) varies with the inhibitor concentration (i), as described in the following equation: vi=v0×e^−k t, where vo is the activity in absence of inhibitor, k is the second-order rate constant of inactivation, and t is the time. The inactivation rate constant was determined from the time course of inhibition.

[10] = molecular target: T9, PlasmaKLK (human plasma) (Homo sapiens, UniProt P03952); assay: Plasma kallikrein inhibition, chromogenic substrate Biophen CS-31(02)
T9 construct: purchased Sigma-Aldrich; host or cells: human plasma
Text: as §1

[11] = molecular target: T10, KLK2 (human) (Homo sapiens, UniProt P20151); assay: KLK2 inhibition, fluorogenic substrate H-Pro-Phe-Arg-AMC
T10 construct: purchased Viktor Magdolen, TUMunich (TUM), supplied by an academic laboratory
Text: as §1

[12] = molecular target: T11, Matriptase (Homo sapiens, UniProt Q9Y5Y6); assay: Matriptase inhibition
T11 sequence (Q9Y5Y6 1-855): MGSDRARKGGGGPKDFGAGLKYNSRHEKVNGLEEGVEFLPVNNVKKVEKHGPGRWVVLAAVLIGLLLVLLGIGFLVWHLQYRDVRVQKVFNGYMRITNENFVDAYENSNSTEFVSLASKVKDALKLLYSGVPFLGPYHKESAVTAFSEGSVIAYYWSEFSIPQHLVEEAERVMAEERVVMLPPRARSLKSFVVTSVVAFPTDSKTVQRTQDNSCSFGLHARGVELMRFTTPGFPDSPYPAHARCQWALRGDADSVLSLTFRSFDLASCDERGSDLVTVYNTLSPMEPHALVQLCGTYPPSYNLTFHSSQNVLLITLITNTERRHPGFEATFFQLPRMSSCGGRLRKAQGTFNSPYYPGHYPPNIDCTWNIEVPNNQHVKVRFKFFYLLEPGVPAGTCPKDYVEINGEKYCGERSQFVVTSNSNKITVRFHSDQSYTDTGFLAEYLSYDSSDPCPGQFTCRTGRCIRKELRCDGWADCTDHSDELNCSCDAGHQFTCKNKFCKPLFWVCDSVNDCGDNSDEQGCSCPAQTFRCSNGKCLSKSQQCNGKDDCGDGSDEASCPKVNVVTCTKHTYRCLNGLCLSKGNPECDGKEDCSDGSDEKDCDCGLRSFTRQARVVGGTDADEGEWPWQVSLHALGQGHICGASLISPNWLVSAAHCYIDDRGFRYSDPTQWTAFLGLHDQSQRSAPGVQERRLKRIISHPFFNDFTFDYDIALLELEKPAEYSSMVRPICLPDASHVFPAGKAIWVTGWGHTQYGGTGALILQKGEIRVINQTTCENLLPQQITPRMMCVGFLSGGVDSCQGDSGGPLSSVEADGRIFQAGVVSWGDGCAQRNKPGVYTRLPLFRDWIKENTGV

[13] = molecular target: T12, Thrombine (human plasma) (Homo sapiens, UniProt P00734); assay: Thrombin inhibition, chromogenic substrate Biophen CS-21(66); conditions: Thrombin; Tris buffer pH 8.3; read-out: IC50 THR
T12 construct: purchased Sigma-Aldrich; host or cells: human plasma

T8 sequence (Q9Y5K2 31-254): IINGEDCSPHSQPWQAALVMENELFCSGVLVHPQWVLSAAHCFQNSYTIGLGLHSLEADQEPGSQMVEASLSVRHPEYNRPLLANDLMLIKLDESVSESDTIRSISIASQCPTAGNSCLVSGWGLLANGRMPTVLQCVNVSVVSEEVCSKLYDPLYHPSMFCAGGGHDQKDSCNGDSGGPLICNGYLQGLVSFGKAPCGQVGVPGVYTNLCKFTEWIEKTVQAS
T5 sequence (P00747 581-810 limits assumed): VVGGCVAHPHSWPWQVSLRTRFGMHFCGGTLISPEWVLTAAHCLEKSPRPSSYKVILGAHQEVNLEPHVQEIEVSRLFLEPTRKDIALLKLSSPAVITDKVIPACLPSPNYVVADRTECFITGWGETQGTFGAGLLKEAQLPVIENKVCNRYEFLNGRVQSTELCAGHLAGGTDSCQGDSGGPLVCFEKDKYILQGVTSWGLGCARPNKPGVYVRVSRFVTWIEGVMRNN
T5 sequence (P00747 98-580 partner limits assumed): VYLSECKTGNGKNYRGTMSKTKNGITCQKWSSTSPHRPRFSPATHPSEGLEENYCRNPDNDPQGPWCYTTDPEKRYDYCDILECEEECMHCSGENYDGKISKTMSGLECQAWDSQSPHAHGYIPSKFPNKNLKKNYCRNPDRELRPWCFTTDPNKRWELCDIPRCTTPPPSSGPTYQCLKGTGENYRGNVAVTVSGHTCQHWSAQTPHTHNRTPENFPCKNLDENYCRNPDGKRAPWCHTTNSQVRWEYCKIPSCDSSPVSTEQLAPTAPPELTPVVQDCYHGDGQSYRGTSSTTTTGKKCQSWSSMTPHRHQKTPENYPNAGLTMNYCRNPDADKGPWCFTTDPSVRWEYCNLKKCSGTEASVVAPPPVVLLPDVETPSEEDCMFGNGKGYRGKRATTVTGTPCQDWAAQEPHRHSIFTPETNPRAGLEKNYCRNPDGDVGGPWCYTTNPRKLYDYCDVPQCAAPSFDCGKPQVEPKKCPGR
T6 sequence (P06870 25-262): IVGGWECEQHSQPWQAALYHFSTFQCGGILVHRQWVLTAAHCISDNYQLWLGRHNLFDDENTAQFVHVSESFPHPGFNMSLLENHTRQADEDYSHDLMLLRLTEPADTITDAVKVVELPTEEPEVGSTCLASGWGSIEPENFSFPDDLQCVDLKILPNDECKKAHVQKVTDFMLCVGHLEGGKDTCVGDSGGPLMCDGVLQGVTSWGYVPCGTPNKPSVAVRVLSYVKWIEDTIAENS
T9 sequence (P03952 391-638 limits assumed): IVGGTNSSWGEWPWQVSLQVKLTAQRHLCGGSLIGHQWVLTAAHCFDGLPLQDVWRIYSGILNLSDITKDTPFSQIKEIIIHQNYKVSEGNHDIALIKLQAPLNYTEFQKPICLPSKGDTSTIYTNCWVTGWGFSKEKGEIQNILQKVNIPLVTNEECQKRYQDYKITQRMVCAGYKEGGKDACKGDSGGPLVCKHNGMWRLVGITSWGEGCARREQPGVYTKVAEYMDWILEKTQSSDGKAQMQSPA
T9 sequence (P03952 20-390 partner limits assumed): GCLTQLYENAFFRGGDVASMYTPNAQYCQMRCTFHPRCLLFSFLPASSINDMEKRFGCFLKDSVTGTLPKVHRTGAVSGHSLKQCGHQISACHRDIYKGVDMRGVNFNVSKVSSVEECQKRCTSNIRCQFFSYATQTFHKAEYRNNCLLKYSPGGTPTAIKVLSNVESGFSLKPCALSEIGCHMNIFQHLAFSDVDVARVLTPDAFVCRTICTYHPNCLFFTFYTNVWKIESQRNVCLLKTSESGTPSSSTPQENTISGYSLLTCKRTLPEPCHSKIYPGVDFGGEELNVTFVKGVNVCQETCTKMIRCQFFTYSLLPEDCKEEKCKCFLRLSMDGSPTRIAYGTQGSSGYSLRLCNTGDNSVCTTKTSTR
T2 sequence (P00750 36-562, species assumed): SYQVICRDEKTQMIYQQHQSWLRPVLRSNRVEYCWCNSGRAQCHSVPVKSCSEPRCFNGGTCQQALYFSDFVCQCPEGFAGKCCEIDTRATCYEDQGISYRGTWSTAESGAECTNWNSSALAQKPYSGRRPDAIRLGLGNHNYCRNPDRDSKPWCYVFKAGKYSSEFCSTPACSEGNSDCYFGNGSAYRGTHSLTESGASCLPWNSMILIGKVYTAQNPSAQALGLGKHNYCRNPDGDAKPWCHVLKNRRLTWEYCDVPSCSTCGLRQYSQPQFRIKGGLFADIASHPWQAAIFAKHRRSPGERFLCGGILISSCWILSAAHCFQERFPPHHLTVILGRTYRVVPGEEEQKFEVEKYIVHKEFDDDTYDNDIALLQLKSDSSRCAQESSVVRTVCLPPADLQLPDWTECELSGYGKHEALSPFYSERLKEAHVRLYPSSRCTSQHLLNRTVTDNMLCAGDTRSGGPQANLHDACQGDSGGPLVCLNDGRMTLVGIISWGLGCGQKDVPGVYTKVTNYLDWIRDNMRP
T10 sequence (P20151 25-261): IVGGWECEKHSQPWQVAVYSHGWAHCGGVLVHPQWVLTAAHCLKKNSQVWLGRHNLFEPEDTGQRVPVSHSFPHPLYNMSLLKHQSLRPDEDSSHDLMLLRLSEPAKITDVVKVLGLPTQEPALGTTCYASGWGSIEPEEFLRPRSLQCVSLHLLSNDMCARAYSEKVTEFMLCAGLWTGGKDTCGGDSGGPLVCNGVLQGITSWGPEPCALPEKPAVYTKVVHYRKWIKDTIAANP
T7 sequence (P00742 235-488 limits assumed): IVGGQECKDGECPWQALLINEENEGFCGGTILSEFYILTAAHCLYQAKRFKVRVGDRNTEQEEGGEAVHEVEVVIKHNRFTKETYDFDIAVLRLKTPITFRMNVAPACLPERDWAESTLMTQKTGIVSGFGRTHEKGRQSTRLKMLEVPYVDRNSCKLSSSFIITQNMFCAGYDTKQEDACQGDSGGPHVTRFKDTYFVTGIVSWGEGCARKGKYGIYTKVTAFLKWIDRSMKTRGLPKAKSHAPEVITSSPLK
T7 sequence (P00742 41-179 partner limits assumed): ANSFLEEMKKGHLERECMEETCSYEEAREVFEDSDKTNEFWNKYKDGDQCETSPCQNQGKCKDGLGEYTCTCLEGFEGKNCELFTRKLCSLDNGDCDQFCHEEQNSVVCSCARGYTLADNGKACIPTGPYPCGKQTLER
Sequence of AcHE (P22303 32-614): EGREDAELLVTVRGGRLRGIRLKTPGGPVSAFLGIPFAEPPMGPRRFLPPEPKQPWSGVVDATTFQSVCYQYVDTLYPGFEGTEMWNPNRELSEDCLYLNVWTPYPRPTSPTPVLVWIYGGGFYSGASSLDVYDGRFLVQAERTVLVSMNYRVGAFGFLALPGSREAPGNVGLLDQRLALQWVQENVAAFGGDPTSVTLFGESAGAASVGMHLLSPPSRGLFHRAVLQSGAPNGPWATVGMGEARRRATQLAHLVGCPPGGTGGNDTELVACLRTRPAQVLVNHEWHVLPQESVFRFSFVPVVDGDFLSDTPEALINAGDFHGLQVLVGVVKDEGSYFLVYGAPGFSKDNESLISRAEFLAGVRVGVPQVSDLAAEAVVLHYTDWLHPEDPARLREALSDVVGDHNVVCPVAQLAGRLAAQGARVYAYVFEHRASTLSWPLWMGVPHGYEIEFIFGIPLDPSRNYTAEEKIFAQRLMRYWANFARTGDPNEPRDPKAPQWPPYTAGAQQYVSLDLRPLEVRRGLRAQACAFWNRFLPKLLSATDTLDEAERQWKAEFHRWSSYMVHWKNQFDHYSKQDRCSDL

CCCCCCOC(=O)NC(c1ccc(NC(=N)N)cc1)P(=O)(Oc1ccccc1)Oc1ccccc1 (stereo not drawn) [Compound 92, Hexyl ((diphenoxyphosphoryl)(4-guanidinophenyl)methyl)carbamate]
pIC50 [1]: 5.00 to 5.60 | pIC50 [2]: 3.60 to 5.00 | pIC50 [3]: 5.00 to 5.60 | pIC50 [4]: 5.00 to 5.60 | pIC50 [5]: 5.00 to 5.60 | pIC50 [6]: 5.00 to 5.60 | pIC50 [7]: 5.60 to 6.00 | pIC50 [8]: 5.00 to 5.60 | pIC50 [9]: > 7.00 | pIC50 [10]: 5.00 to 5.60 | pIC50 [11]: 6.00 to 7.00

COCCOCCOC(=O)NC(c1ccc(NC(=N)N)cc1)P(=O)(Oc1ccc(NC(C)=O)cc1)Oc1ccc(NC(C)=O)cc1 (stereo not drawn) [Compound 114, 2-(2-methoxyethoxy)ethyl ((bis(4-acetamidophenoxy)phosphoryl)(4-guanidinophenyl)methyl) carbamate]
pIC50 [1]: 5.60 to 6.00 | pIC50 [5]: 5.00 to 5.60 | pIC50 [12]: 5.60 to 6.00 | pIC50 [6]: 3.60 to 5.00 | pIC50 [7]: 5.00 to 5.60 | pIC50 [9]: > 7.00 | pIC50 [11]: 6.00 to 7.00

CCN(CC)c1ccc2c(-c3ccccc3C(=O)N3CCN(C(=O)CCCCCCCn4cc(COCCOCCOC(=O)NC(c5ccc(NC(=N)N)cc5)P(=O)(Oc5ccccc5)Oc5ccccc5)nn4)CC3)c3ccc(=[N+](CC)CC)cc-3oc2c1 (stereo not drawn) [Compound 133, N-(6-(diethylamino)-9-(2-(4-(8-(4-(1-(diphenoxyphosphoryl)-1-(4-guanidinophenyl)-3-oxo-4,7,10-trioxa-2-azaundecan-11-yl)-1H-1,2,3-triazol-1-yl)octanoyl)piperazine-1-carbonyl)phenyl)-3H-xanthen-3-ylidene)-N-ethylethanaminium]
pIC50 ([3]; Tris buffer pH 8.3, read-out: IC50 tPA): < 3.60 | pIC50 [13]: 3.60 to 5.00 | pIC50 ([4]; Tris buffer pH 7.8, read-out: IC50 HNE): 3.60 to 5.00 | pIC50 ([5]; Tris buffer pH 8.8, read-out: IC50 uPA): 5.00 to 5.60 | pIC50 ([12]; Matriptase, read-out: IC50 MAT): 5.00 to 5.60 | pIC50 ([6]; Plasmin, Tris buffer pH 7.4, read-out: IC50 PLM): 3.60 to 5.00 | pIC50 ([8]; Tris buffer pH 8.3, read-out: IC50 FXa): 5.00 to 5.60 | pIC50 ([9]; 15 min pre-incubation at 37° C., Tris buffer pH 8.3, read-out: IC50 KLK4): > 7.00 | pIC50 ([10]; Plasma KLK, Tris buffer pH 7.8, read-out: IC50 pKLK): 3.60 to 5.00
